Converted amounts (≈) assume the structure as drawn. “And” between values parts separate entries of the source, which are not always exact repeats. Equal values may be shown once. Read-outs that look alike come from different tables or passages of the source.
Columns and labels:
human red blood cells = test: Hemolytic assay; format: cell-based; conditions: concentration at 10% hemolytic activity on human red blood cells; mean (n = 2)
Procedure: Hemolysis assays were conducted using the protocols previously reported.

[1] = tested on: P. aeruginosa (PAO1 or ATCC 27853); test: Antimicrobial MIC, P. aeruginosa; format: cell-based; conditions: Pseudomonas aeruginosa
Procedure: (§1) The susceptibility of bacterial strains S. aureus (ATCC 25,923 or 29213), E. coli (ATCC 25922), and P. aeruginosa (ATCC 27853) to antibiotics and compounds was determined according to previously reported protocols. Additional antimicrobial evaluation against MRSA (ATCC 43300), Klebsiella pneumoniae (ATCC 700603), Acinetobacter baumannii (ATCC 19606), Candida albicans (ATCC 90028), and Cryptococcus neoformans (ATCC 208821) was undertaken at the Community for Open Antimicrobial Drug Discovery at The University of Queensland (Australia) according to their standard protocols as reported previously.

E. coli (ATCC 25922) [2] = test: Antimicrobial MIC, E. coli; format: cell-based, Escherichia coli; conditions: Escherichia coli, ATCC25922, E. coli (ATCC 25922); mean (n = 2)
Procedure: as §1

E. coli (ATCC 25922) [3] = test: Enhancement of erythromycin activity; format: cell-based, Escherichia coli; conditions: for Eryth/E.c: concentration required to restore erythromycin activity (combination MIC): erythromycin fixed at 10.9 µM (8 µg/mL), E. coli (ATCC 25922); for Eryth/E.c fold change: ratio between intrinsic MIC of test compound and combination MIC, erythromycin 10.9 µM, E. coli
Procedure: Restoring enhancer concentrations were determined using previously reported protocols.

[4] = tested on: K. pneumoniae (ATCC 700603); test: Antimicrobial MIC, K. pneumoniae; format: cell-based; conditions: Klebsiella pneumoniae, ATCC700603, mean (n = 2)
Procedure: as §1

[5] = tested on: C. neoformans (ATCC 208821); test: Antifungal MIC, C. neoformans; format: cell-based, Cryptococcus neoformans; conditions: Cryptococcus neoformans, ATCC208821, C. neoformans (ATCC 208821); mean (n = 2)
Procedure: as §1

[6] = tested on: A. baumannii (ATCC 19606); test: Antimicrobial MIC, A. baumannii; format: cell-based, Acinetobacter baumannii; conditions: Acinetobacter baumannii, ATCC19606, A. baumannii (ATCC 19606); mean (n = 2)
Procedure: as §1

C. albicans (ATCC 90028) = test: Antifungal MIC, C. albicans; format: cell-based; conditions: Candida albicans, ATCC90028, mean (n = 2)
Procedure: as §1

[7] = tested on: S. aureus (ATCC 25,923 or ATCC 29213); test: Antimicrobial MIC, S. aureus; format: cell-based, Staphylococcus aureus; conditions: Staphylococcus aureus, mean (n = 3)
Procedure: as §1

MRSA (ATCC 43300) = test: Antimicrobial MIC, MRSA; format: cell-based, methicillin-resistant Staphylococcus aureus; conditions: read-out: MIC MRSA
Procedure: as §1

Cytotoxicity assay = format: cell-based, human; conditions: human, HEK293 human embryonic kidney cells, concentration at 50% cytotoxicity on HEK293 cells; mean (n = 2)
Procedure: Cytotoxicity assays were conducted using the protocols previously reported.

[8] = tested on: P. aeruginosa (ATCC 27853); test: Enhancement of doxycycline activity; format: cell-based, Pseudomonas aeruginosa; conditions: for Dox/P.a: concentration required to restore doxycycline activity (combination MIC): doxycycline fixed at 4.5 µM (2 µg/mL); for Dox/P.a: concentration required to restore doxycycline activity (combination MIC) / Concentration of test compound required to restore doxycycline activity: P. aeruginosa (ATCC 27853); for Dox/P.a fold change: ratio between intrinsic MIC of test compound and combination MIC, doxycycline 4.5 µM, P. aeruginosa
[9] = P. aeruginosa (PAO1 or ATCC 27853), mean (n = 3), read-out: MIC P. a
[10] = Staphylococcus aureus, MRSA (ATCC 43300), mean (n = 2)

Row | SMILES | Hemolysis HC10 (human red blood cells) [µM] | MIC [1, 9] [µM] | MIC (E. coli (ATCC 25922) [2]) [µM] | Eryth/E.c: concentration required to restore erythromycin activity (combination MIC) (E. coli (ATCC 25922) [3]) [µM] | Eryth/E.c fold change (E. coli (ATCC 25922) [3]) [fold] | MIC [4] [µM] | MIC [5] [µM] | MIC [6] [µM] | MIC (C. albicans (ATCC 90028)) [µM] | MIC [7] [µM] | MIC (MRSA (ATCC 43300); [10]) [µM] | IC50 (Cytotoxicity assay) [µM] | Dox/P.a: concentration required to restore doxycycline activity (combination MIC) [8] [µM] | Dox/P.a fold change [8] [fold] | other results
1 | O=C(NCCCNCCCCCCCNCCCNC(=O)c1cccc2ccccc12)c1cccc2ccccc12.O=C(O)C(F)(F)F.O=C(O)C(F)(F)F [Compound 17c, N^1,N^7-Bis(3-(1-naphthamido)propyl)heptane-1,7-diaminium 2,2,2-trifluoroacetate] | >41.0 | > 256 | 256 | 64 | 4 | > 41 | > 41 | > 41 | > 41 | 256 | > 41 | > 41 | 64 | – | –
2 | O=C(NCCCNCCCCCCCCNCCCNC(=O)c1cccc2ccccc12)c1cccc2ccccc12.O=C(O)C(F)(F)F.O=C(O)C(F)(F)F [Compound 17d, N^1,N^8-Bis(3-(1-naphthamido)propyl)octane-1,8-diaminium 2,2,2-trifluoroacetate] | >40.3 | > 100 | 100 | 31.5 | 3 | > 40.3 | > 40.3 | > 40.3 | > 40.3 | 50 | > 40.3 | > 40.3 | – | – | –
3 | O=C(NCCCNCCCCCCCCCCNCCCNC(=O)c1cccc2ccccc12)c1cccc2ccccc12.O=C(O)C(F)(F)F.O=C(O)C(F)(F)F [Compound 17e, N^1,N^10-Bis(3-(1-naphthamido)propyl)decane-1,10-diaminium 2,2,2-trifluoroacetate] | >38.9 | 608 | 608 | 122 | 5 | > 38.9 | 38.9 | > 38.9 | > 38.9 | 244 | 9.7 | 23.7 | 608 | 1 | MIC (MRSA (ATCC 43300); MRSA (ATCC 43300), mean (n = 2)): 9.72 µM
4 | O=C(NCCCNCCCCCCCCCCCCNCCCNC(=O)c1cccc2ccccc12)c1cccc2ccccc12.O=C(O)C(F)(F)F.O=C(O)C(F)(F)F [Compound 17f, N^1,N^12-Bis(3-(1-naphthamido)propyl)dodecane-1,12-diaminium 2,2,2-trifluoroacetate] | >37.6 | 300 | 100 | 50 | 2 | > 37.6 | 0.29 | 0.29 | > 37.6 | 25 | 0.29 | > 37.6 | 300 | 1 | –
5 | O=C(CCC(=O)Nc1cccc2ccccc12)NCCCNCCCCNCCCNC(=O)CCC(=O)Nc1cccc2ccccc12.O=C(O)C(F)(F)F.O=C(O)C(F)(F)F [Compound 18a, N^1,N^4-Bis(3-(4-(naphthalen-1-ylamino)-4-oxobutanamido)propyl)butane-1,4-diaminium 2,2,2-trifluoroacetate] | – | 568 | 568 | 568 | 1 | > 36.3 | > 36.3 | > 36.3 | > 36.3 | 568 | > 36.3 | – | 568 | 1 | –
6 | O=C(CCC(=O)Nc1ccc2ccccc2c1)NCCCNCCCCNCCCNC(=O)CCC(=O)Nc1ccc2ccccc2c1.O=C(O)C(F)(F)F.O=C(O)C(F)(F)F [Compound 20a, N^1,N^4-Bis(3-(4-(naphthalen-2-ylamino)-4-oxobutanamido)propyl)butane-1,4-diaminium 2,2,2-trifluoroacetate] | >36.3 | 568 | 227 | – | – | > 36.3 | > 36.3 | > 36.3 | > 36.3 | 57 | 18.2 | > 36.3 | 28 | 20 | Concentration of test compound required to restore doxycycline activity ([8]; doxycycline concentration 2 µg/mL): 28.4 µM; Concentration of test compound required to restore doxycycline activity ([8]; doxycycline concentration 4 µg/mL): 14.2 µM; Concentration of test compound required to restore doxycycline activity ([8]; doxycycline concentration 6 µg/mL): 14.2 µM; Concentration of test compound required to restore doxycycline activity ([8]; doxycycline concentration 8 µg/mL): 3.5 µM
7 | O=C(N[C@H](CO)[C@H](O)c1ccc([N+](=O)[O-])cc1)C(Cl)Cl [chloramphenicol, reference compound] | – | – | – | – | – | – | – | – | – | 1.5 to 3 (≈ 0.485 to 0.969 µg/mL) | – | – | – | – | –
8 | C[C@H]1c2cccc(O)c2C(=O)C2=C(O)[C@]3(O)C(=O)C(C(N)=O)=C(O)[C@@H](N(C)C)[C@@H]3[C@@H](O)[C@@H]21 [doxycycline, reference compound] | – | – | – | – | – | – | – | – | – | – | – | – | – | – | MIC ([1]; antibiotic alone, P. aeruginosa, read-out: intrinsic MIC against P. aeruginosa): 40 µg/mL and 90 µM
9 | OC(Cn1cncn1)(Cn1cncn1)c1ccc(F)cc1F [fluconazole, reference compound] | – | – | – | – | – | – | 26 (≈ 7.96 µg/mL) | – | 0.4 (≈ 0.123 µg/mL) | – | – | – | – | – | –
10 | [H]/N=C(/N)N[C@H]1[C@H](O)[C@@H](O)[C@H](O[C@@H]2O[C@@H](C)[C@](O)(C=O)[C@H]2O[C@@H]2O[C@@H](CO)[C@H](O)[C@@H](O)[C@@H]2NC)[C@@H](N/C(N)=N\[H])[C@@H]1O [streptomycin, reference compound] | – | 21.5 (≈ 12.5 µg/mL) | – | – | – | – | – | – | – | 21.5 (≈ 12.5 µg/mL) | – | – | – | – | –
11 | CC/C(=C(\c1ccccc1)c1ccc(OCCN(C)C)cc1)c1ccccc1 [tamoxifen, reference compound] | – | – | – | – | – | – | – | – | – | – | – | 24 | – | – | –
12 | CN[C@H](CC(C)C)C(=O)N[C@H]1C(=O)N[C@@H](CC(N)=O)C(=O)N[C@H]2C(=O)N[C@H]3C(=O)N[C@H](C(=O)N[C@H](C(=O)O)c4cc(O)cc(O)c4-c4cc3ccc4O)[C@H](O)c3ccc(c(Cl)c3)Oc3cc2cc(c3O[C@@H]2O[C@H](CO)[C@@H](O)[C@H](O)[C@H]2O[C@H]2C[C@](C)(N)[C@H](O)[C@H](C)O2)Oc2ccc(cc2Cl)[C@H]1O [vancomycin, reference compound] | – | – | – | – | – | – | – | – | – | – | – | – | – | – | MIC (MRSA (ATCC 43300); Staphylococcus aureus): 0.7 µM (≈ 1.01 µg/mL)
